Test results published in ChEMBL document CHEMBL1201862, “PubChem BioAssay data set” (2004).
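Growth conditions: 96-well plates. Treatment: test compound, 48 hours, 5 concentrations. Analysis: linear interpolation between bracketing concentrations; unreached endpoints set to highest concentration. GI50 marks 50% less growth.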 Calls of active or inactive are those of the source. Rule as the data show it: active = GI50 up to about 1.1 µM and inactive = higher.

Experiments:
Test in all cases: NCI-60 cell line screen, 48 h
ACHN = system: ACHN
SF-295 = system: SF-295
LOX IMVI = system: LOX IMVI
CAKI-1 = system: CAKI-1
SF-268 = system: SF-268
SK-MEL-5 = system: SK-MEL-5
NCI-H23 = system: NCI-H23
Hs-578T = system: Hs-578T
SW-620 = system: SW-620
SF-539 = system: SF-539
RPMI-8226 = system: RPMI-8226
HL-60 = system: HL-60
MDA-MB-435 = system: MDA-MB-435
UACC-257 = system: UACC-257
M14 = system: M14
NCI/ADR-RES = system: NCI/ADR-RES
NCI-H226 = system: NCI-H226
COLO 205 = system: COLO 205
HOP-62 = system: HOP-62
NCI-H522 = system: NCI-H522

Row | SMILES | GI50 (ACHN) | GI50 (SF-295) | GI50 (LOX IMVI) | GI50 (CAKI-1) | GI50 (SF-268) | GI50 (SK-MEL-5) | GI50 (NCI-H23) | GI50 (Hs-578T) | GI50 (SW-620) | GI50 (SF-539) | GI50 (RPMI-8226) | GI50 (HL-60) | GI50 (MDA-MB-435) | GI50 (UACC-257) | GI50 (M14) | GI50 (NCI/ADR-RES) | GI50 (NCI-H226) | GI50 (COLO 205) | GI50 (HOP-62) | GI50 (NCI-H522)
1 | COC(=O)C(=O)C(C(=O)C(=O)Nc1ccc([N+](=O)[O-])cc1[N+](=O)[O-])c1nc2ccc(Cl)cc2nc1O (centres undefined) | > 100 µM (inactive) | > 100 µM (inactive) | > 100 µM (inactive) | 17.5 µM (inactive) | 74.1 µM (inactive) | > 100 µM (inactive) | > 100 µM (inactive) | 25.1 µM (inactive) | > 100 µM (inactive) | > 100 µM (inactive) | > 100 µM (inactive) | > 100 µM (inactive) | > 100 µM (inactive) | > 100 µM (inactive) | > 100 µM (inactive) | 87.3 µM (inactive) | 78.5 µM (inactive) | > 100 µM (inactive) | – | –
2 | Cc1cc([C@H](C#N)c2nc3ccccc3s2)nc(Cl)n1 | 9.25 µM (inactive) | 15.5 µM (inactive) | 2.89 µM (inactive) | 4.51 µM (inactive) | 5.01 µM (inactive) | 1.79 µM (inactive) | 2.78 µM (inactive) | 4.71 µM (inactive) | 3.04 µM (inactive) | 4.92 µM (inactive) | 2.3 µM (inactive) | 3.67 µM (inactive) | 2.99 µM (inactive) | 5.41 µM (inactive) | 5.57 µM (inactive) | 3.08 µM (inactive) | 3.46 µM (inactive) | 2.4 µM (inactive) | 4.66 µM (inactive) | –
3 | Nc1ncnc2c1ncn2C(=O)NC12CC3CC(CC(C3)C1)C2 | > 100 µM (inactive) | > 100 µM (inactive) | > 100 µM (inactive) | > 100 µM (inactive) | > 100 µM (inactive) | > 100 µM (inactive) | > 100 µM (inactive) | > 100 µM (inactive) | > 100 µM (inactive) | > 100 µM (inactive) | > 100 µM (inactive) | > 100 µM (inactive) | > 100 µM (inactive) | > 100 µM (inactive) | > 100 µM (inactive) | > 100 µM (inactive) | > 100 µM (inactive) | > 100 µM (inactive) | > 100 µM (inactive) | –
4 | O=C(O)C1Cc2ccccc2OC1=O (centres undefined) | > 100 µM (inactive) | > 100 µM (inactive) | – | > 100 µM (inactive) | > 100 µM (inactive) | > 100 µM (inactive) | 8.69 µM (inactive) | > 100 µM (inactive) | > 100 µM (inactive) | > 100 µM (inactive) | > 100 µM (inactive) | – | > 100 µM (inactive) | > 100 µM (inactive) | > 100 µM (inactive) | > 100 µM (inactive) | > 100 µM (inactive) | > 100 µM (inactive) | > 100 µM (inactive) | > 100 µM (inactive)
5 | CC(C)=CCN1CC(C)C(=O)Nc2ccccc21 (centres undefined) | > 100 µM (inactive) | > 100 µM (inactive) | > 100 µM (inactive) | > 100 µM (inactive) | > 100 µM (inactive) | 42.6 µM (inactive) | > 100 µM (inactive) | > 100 µM (inactive) | > 100 µM (inactive) | > 100 µM (inactive) | > 100 µM (inactive) | > 100 µM (inactive) | > 100 µM (inactive) | 44.7 µM (inactive) | > 100 µM (inactive) | – | 65.2 µM (inactive) | > 100 µM (inactive) | > 100 µM (inactive) | 66.8 µM (inactive)
6 | CC(=O)OCC1OC(n2c(C)c(/N=N/c3ccccc3)c(C)c(C#N)c2=S)C(OC(C)=O)C(OC(C)=O)C1OC(C)=O (centres undefined) | > 100 µM (inactive) | 15 µM (inactive) | 39.6 µM (inactive) | 26.6 µM (inactive) | 57.1 µM (inactive) | 34 µM (inactive) | > 100 µM (inactive) | 5.32 µM (inactive) | > 100 µM (inactive) | 58.7 µM (inactive) | > 100 µM (inactive) | > 100 µM (inactive) | > 100 µM (inactive) | > 100 µM (inactive) | 33.7 µM (inactive) | 55.3 µM (inactive) | – | 86.3 µM (inactive) | 14.4 µM (inactive) | –
7 | CC(=O)OCC(OC(C)=O)C1C[C@H]2O[C@@H]3[C@H](C[C@H]2O1)O[C@@]1(C[C@@H]3C)C[C@H](C)[C@@H]2O[C@]3(C[C@@H]2O1)C[C@H]1O[C@H]2[C@H](C)[C@H]4OC(=O)CC5CC[C@H]6OC7[C@H]8O[C@]9(CC[C@H]%10CC(O)(CO)[C@H](CC[C@H]%11C[C@@H](C)C(O)(CO)C(C[C@@H]4O[C@H]2C[C@H]1O3)O%11)O%10)CC8O[C@@H]7[C@@H](O9)[C@H]6O5 (some centres undefined) | 0.0479 µM (active) | 0.0043 µM (active) | 0.0146 µM (active) | 0.0127 µM (active) | 0.00986 µM (active) | 0.00141 µM (active) | 0.00496 µM (active) | 0.00154 µM (active) | 0.00492 µM (active) | – | 0.00282 µM (active) | – | 0.000853 µM (active) | 0.00555 µM (active) | 0.00935 µM (active) | 0.0201 µM (active) | 0.0122 µM (active) | 0.00445 µM (active) | 0.0622 µM (active) | 0.000942 µM (active)
